The record followed here is paper PMC7531004, “Discovery of gramicidin A analogues with altered activities by multidimensional screening of a one-bead-one-compound library” (Nature Communications, 2020).

A short description of data set [1]: H+/Na+ transport assay of bead-derived peptides (one-point).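 Note: relative to parent gramicidin A activity set to 1.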 Format: biochemical. The arrangement: key: relative activity; mean of two control wells = 1.00. The settings on record: bead-derived peptide solution, EYPC/EYPG LUVs. In short, it runs like this:
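One-point screen: peptide + pyranine-loaded LUVs, 30 min RT with vortexing, 96-well. Read-out is fluorescence intensity scaled as 100 × (Ix – I0)/(Imax – I0). Imax from Triton X-100, I0 from untreated vesicles, and the mean of the two control wells is set to 1.00.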

Data set [2] deals with Streptococcus pyogenes SSI-9. Description: Antibacterial activity assay of bead-derived peptides (three concentrations). Format: cell-based. To be noted: S. pyogenes, bead-derived peptide solution, three concentrations. Also noted: key: +++: inhibition by the 640-fold diluted peptide solution; ++: inhibition by the 160-fold diluted solution; +: inhibition by the 40-fold diluted solution; -: no inhibition. In short, it runs like this:
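Bead-derived library peptide stocks in DMSO were tested undiluted and after 4- and 16-fold DMSO dilution against S. pyogenes SSI-9 (2 × 10^5 CFU/well) in cation-adjusted Mueller Hinton Broth with 5% laked horse blood. After 18 h at 37 °C, wells were scored for precipitation of grown cells.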

The test system of data set [3] is P388 mouse leukemia cells. To be noted: 92 h. In short, it runs like this: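 First, library peptide stocks are diluted 250-fold in RPMI1640 with 10% heat-inactivated FBS. Next, they are mixed with P388 cells to give 1 × 10^4 cells/mL and incubated 92 h at 37 °C, 5% CO2. Finally, viability (%) is scored by WST-1 absorbance at 415 nm.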

Where a SMILES comes first, the peptide text is derived from it. [ ]: non-standard residue; d: D form. The star is where a group is joined. NHCH2CH2OH = OCCN*; For = O=C*

For the molecule `CC(C)C[C@@H](NC(=O)[C@H](C)NC(=O)[C@H](NC(=O)[C@H](C)NC(=O)CNC(=O)[C@@H](NC=O)C(C)C)[C@H](C)O)C(=O)N[C@H](C(=O)N[C@H](CC(C)C)C(=O)N[C@@H](Cc1c[nH]c2ccccc12)C(=O)N[C@@H](C(=O)N[C@@H](Cc1c[nH]c2ccccc12)C(=O)N[C@@H](C(=O)N[C@@H](Cc1c[nH]c2ccccc12)C(=O)N[C@H](CC(C)C)C(=O)N[C@@H](Cc1c[nH]c2ccccc12)C(=O)NCCO)C(C)C)[C@H](C)O)C(C)C` [compound 7015] (For-VGA[dT]A[dL]V[dL]W[dT]W[dV]W[dL]W-NHCH2CH2OH), in data set [1], the “H+/Na+ transport activity normalized against the value of 1 (1.00)” value (“H+/Na+ transport activity normalized” below) was 1.07. The antibacterial activity entry in data set [2] is on record as “-”. The same molecule gave a cell viability/% in data set [3] of 100.0%.
Regarding `CNC(=O)C[C@@H](NC(=O)[C@@H](NC(=O)[C@@H](CC(C)C)NC(=O)[C@H](C)NC(=O)[C@@H](CC(C)C)NC(=O)[C@H](C)NC(=O)CNC(=O)[C@@H](NC=O)C(C)C)C(C)C)C(=O)N[C@@H](Cc1c[nH]c2ccccc12)C(=O)N[C@H](CC(C)C)C(=O)N[C@@H](Cc1c[nH]c2ccccc12)C(=O)N[C@H](CC(C)C)C(=O)N[C@@H](Cc1c[nH]c2ccccc12)C(=O)N[C@H](CC(C)C)C(=O)N[C@@H](Cc1c[nH]c2ccccc12)C(=O)NCCO` [compound 1400] (For-VGA[dL]A[dL]V[dD](NHMe)W[dL]W[dL]W[dL]W-NHCH2CH2OH), in data set [1], the “H+/Na+ transport activity normalized” value was found to be 1.10. For the same molecule, the antibacterial activity entry in data set [2] is “-”. For the same molecule, the cell viability/% in data set [3] came to 72.7%.
Taken in the same sequence, the figures for `CNC(=O)C[C@@H](NC(=O)[C@@H](NC(=O)[C@@H](CC(C)C)NC(=O)[C@H](C)NC(=O)[C@H](NC(=O)[C@H](C)NC(=O)CNC(=O)[C@@H](NC=O)C(C)C)C(C)C)C(C)C)C(=O)N[C@@H](Cc1c[nH]c2ccccc12)C(=O)N[C@@H](C(=O)N[C@@H](Cc1c[nH]c2ccccc12)C(=O)N[C@@H](C(=O)N[C@@H](Cc1c[nH]c2ccccc12)C(=O)N[C@@H](C(=O)N[C@@H](Cc1c[nH]c2ccccc12)C(=O)NCCO)C(C)C)C(C)C)C(C)C` [compound 11383] (For-VGA[dV]A[dL]V[dD](NHMe)W[dV]W[dV]W[dV]W-NHCH2CH2OH) were 1.09, “-” and 55.3%.
As for `CC(C)C[C@@H](NC(=O)[C@H](C)NC(=O)CNC(=O)[C@@H](NC=O)C(C)C)C(=O)N[C@@H](C)C(=O)N[C@H](CC(C)C)C(=O)N[C@H](C(=O)N[C@H](CC(C)C)C(=O)N[C@@H](Cc1c[nH]c2ccccc12)C(=O)N[C@@H](C(=O)N[C@@H](Cc1c[nH]c2ccccc12)C(=O)N[C@H](CC(C)C)C(=O)N[C@@H](Cc1c[nH]c2ccccc12)C(=O)N[C@@H](C(=O)N[C@@H](Cc1c[nH]c2ccccc12)C(=O)NCCO)C(C)C)C(C)C)C(C)C` [compound 6096] (For-VGA[dL]A[dL]V[dL]W[dV]W[dL]W[dV]W-NHCH2CH2OH), in data set [1], the “H+/Na+ transport activity normalized” value was determined as 1.16. Moreover, the antibacterial activity result in data set [2] was “+”. This molecule gave a cell viability/% in data set [3] of 7.3%.
The corresponding values for `CC(C)C[C@@H](NC(=O)[C@H](Cc1c[nH]c2ccccc12)NC(=O)[C@@H](CC(C)C)NC(=O)[C@@H](NC(=O)[C@H](NC(=O)[C@H](C)NC(=O)[C@H](NC(=O)[C@H](C)NC(=O)CNC(=O)[C@@H](NC=O)C(C)C)[C@H](C)O)C(C)C)C(C)C)C(=O)N[C@@H](Cc1c[nH]c2ccccc12)C(=O)N[C@H](CC(C)C)C(=O)N[C@@H](Cc1c[nH]c2ccccc12)C(=O)N[C@@H](C(=O)N[C@@H](Cc1c[nH]c2ccccc12)C(=O)NCCO)C(C)C` [compound 94] (For-VGA[dT]A[dV]V[dL]W[dL]W[dL]W[dV]W-NHCH2CH2OH) are 1.16, “-” and 100.0%.
